This passage reports melting point results from a melting point compilation (Tetko et al.; mined from patent text by program, amines drawn as free bases though some values may be those of a salt).

Bounds are passed on as bounds.

Consider `O=C(O)CCCN1CCN(C(=O)c2cc(C(F)(F)F)cc(C(F)(F)F)c2)[C@H](Cc2c[nH]c3ccccc23)C1`, for which the melting point lay in the range of 112 to 120 °C.
The value for `OCC1OC(n2cnc3c(NCC4(c5cccs5)CCC4)ncnc32)C(O)C1O` (stereo not drawn) was 84 to 92 °C; that for `CC(C)(C)c1nc(/C=C/c2cn(-c3ccccc3)nc2O)cs1` was 209 to 211 °C.
The value for `CCCOCCOC(=O)C1=C(C)NC(C)=C([N+](=O)[O-])C1c1cccc([N+](=O)[O-])c1` (stereo not drawn) was 161 °C.
Next, `COC(=O)c1ccc(COCn2cc(Cl)cnc2=O)cc1`: 172 °C.
Take `CCOC(=O)c1cn(C(c2ccccc2)(c2ccccc2)c2ccccc2)cn1`: the melting point lay in the range of 163 to 164 °C.
As for `CC(C)(C)OC(=O)CN1C(=O)[C@H](N)CCc2ccccc21`, the melting point is 113 to 115 °C.
Next, `CC(C)NCC1CCN(c2c(F)cc3c(=O)c(C(=O)O)cn(C4CC4)c3c2F)C1` (stereo not drawn): 218 to 221 °C; `Cc1cc(C(=O)O)ccc1Cc1cc2cc(C(F)(F)F)ccc2n1S(=O)(=O)c1cccc(C(C)(C)C)c1`: 135 °C; `CCOC(=O)C(C)(C)OC(=O)c1cc(-n2c(=O)cc(C(F)(F)F)[nH]c2=O)ccc1Cl`: 176 to 177 °C.
Next, `O=C1NCCc2c(Cl)cccc21`: 143 to 148 °C.
The value for `C=CCSc1nnc(Cl)c(C)c1C` was 51 to 53 °C; that for `CC(C)(C)c1cc(OCc2ccc(-c3nnn[nH]3)cc2)cc(C(C)(C)C)c1O` was 235 to 237 °C; that for `CCO[C@@H]1C[C@H](C(=O)Nc2ccc(N3CCOCC3=O)c(C)c2)N(C(=O)Nc2ccc(Cl)cc2)C1` was 117 °C.
With `O=C(O)CC1(c2cccc(F)c2)NC(=O)NC1=O` (stereo not drawn), the melting point lay within 206 to 208 °C.
The value for `C=CCCCOc1ccc2c(=O)cc(-c3ccccc3)oc2c1` was 104 to 106 °C; that for `Cc1cccc(-c2nc3ccccn3c2-c2ccnc(-c3ccc(OC(F)(F)F)cc3)c2)n1` was 120 °C.
Next, `NC1=NC2(CN(C(=O)OCc3ccccc3)C2)Nc2cccc(F)c21`: 157 to 159 °C; `COC(=O)c1sc(C(C)(C)C)cc1NC(=O)Nc1ccc(F)cc1`: 160 to 162 °C.
For the compound `CC(=O)C(C#N)c1ccc(F)cc1` (stereo not drawn), the melting point was 77 to 83 °C.
Next, `COc1ccc(NC(=O)Nc2ccc(Cl)c(Cl)c2)cc1NC(=S)Nc1cccc(C(=O)O)c1`: 209 to 211 °C; `COC(=O)/C(=C/c1ccc2[nH]ccc2c1)N=[N+]=[N-]`: 130 to 133 °C; `O=C(C=Cc1cccc(-c2ccccc2)c1)Nc1ccc(CN2CCCCC2)cc1`: 159 to 160 °C.
Next, `Cc1ccc(S(=O)(=O)n2c(CCCC(=O)O)cc3nc(Cl)ccc32)c(Cl)c1`: 168 to 169 °C; `CCCCCCCCCCCCCCCCCCNC(=O)c1ccccc1N`: 89 to 90 °C; `c1ccc2c(c1)ccc1nn[nH]c12`: 245 to 247 °C.
`CCOP(=O)(OCC)c1cccc(OCc2ccc3ccccc3c2)c1` registered a melting point of 55 to 57 °C.
Next, `COc1c(Cl)cc2nc3c(=O)[nH][nH]c(=O)c3c(O)c2c1Cl`: 210 to 211 °C.
The value for `NCCOc1cccc2c1ccn2S(=O)(=O)c1ccccc1` was 71 to 73 °C; that for `CCc1c(-c2cnccn2)ssc1=S` was 121 °C.
Next, `CC(c1cc(Cl)cc(Cl)c1O)c1cc(F)cc(CO)c1O` (stereo not drawn): 148 °C; `COCC1CN(c2ccc(Br)nc2)C(=O)O1` (racemic): 108 to 110 °C; `O=C(c1ccccc1)c1ccc2c(c1)CC(C(=O)NCCO)C2` (stereo not drawn): 106 to 107 °C.
For the compound `CC(C)(C)OC(=O)N1C[C@@H](P(C2CCCCC2)C2CCCCC2)C[C@H]1CP(c1ccccc1)c1ccccc1`, the melting point is 171 to 174 °C.
On to `Oc1ncncc1Oc1ccccc1`, for which the melting point was in the range of 186 to 188 °C.
Consider `C=Cc1ccc(-c2cc(NC(=O)C3Cc4ccccc4C3)n[nH]2)cc1`, for which the melting point was in the range of 193 to 195 °C.
Next, `COc1ccc(N/C(SC)=C(\C#N)C(N)=O)cc1O`: 160 to 164 °C; `NS(=O)(=O)c1cc2c(cc1Cl)C(=O)N(CCCN1CCOCC1)C2=O`: 190 to 191 °C.
`O=C1CN2CCOC2(c2ccccc2F)c2cc(Cl)ccc2N1` (stereo not drawn) yielded a melting point of 183 to 184 °C.
Compound `COc1ccc(Nc2ncc3cc4ccccc4n3n2)cc1` displayed a melting point of 197 to 200 °C.
As to `CC1(C)C=Cc2c(c3ccccc3[nH]c2=O)O1`, the melting point is 174 to 177 °C.
The value for `CC[C@H]1CN(c2c(F)cc3c(=O)c(C(=O)O)cn([C@@H]4C[C@@H]4F)c3c2OC)C[C@H]1N` was 217 to 219 °C; that for `CCN(CC)c1ccc(F)c2nc3n(c12)CCCN3c1ccc(Cl)cc1Cl` was 170 to 172 °C.
On to `CCOC(=O)[C@H](O)[C@@H](NC(=O)OC(C)(C)C)c1ccccc1`, for which the melting point was determined as 102 °C.
In turn, `O=C(O)CN1C(=O)[C@@H](N[C@@H](CCc2ccccc2)C(=O)O)COc2ccccc21` returned a melting point of 127 to 130 °C.
The value for `CC(=O)OC1CCC(n2c(Br)nc3cc(Cl)c(Cl)cc32)C1OC(C)=O` (stereo not drawn) was 140 to 146 °C; that for `CC(C)(C)c1ccc(OCC(O)CN2CCC3(CC2)CSC2=C(O3)c3cc(-c4ccccc4)ccc3C(=O)C2=O)cc1` (stereo not drawn) was 94 to 97 °C.
Next, `CCCOC(=O)Nc1cccc(NC(=O)C=C(C)OC)c1`: 115 °C; `CCC1C(=O)Nc2cc(N)c(N)cc21` (stereo not drawn): > 300 °C.
`CC(=O)Nc1ccc2c(c1)c(-c1cc3cccnc3[nH]1)cn2C` displayed a melting point of 220 to 221 °C.
`COC(=O)C1=C(C)NC(C)=C(c2nc(-c3ccc(CN(C)Cc4ccccc4)cc3)no2)C1c1cccc([N+](=O)[O-])c1` (stereo not drawn) gave a melting point of 192 to 193 °C.
The value for `CNC1=NS(=O)N=C1NCCSCc1ccc(CN(C)C)s1` (stereo not drawn) was 98.5 to 102 °C; that for `O=c1c2ccccc2[nH]c2c(OCCN(CCCl)CCCl)cccc12` was 131 to 133 °C.
The value for `CCOC(=O)c1ccc(C(Cc2ccc(F)cc2)C(=O)Nc2nc3ccccc3o2)cc1` (stereo not drawn) was 122 to 125 °C; that for `COc1ccc(Nc2ncc3c(n2)-c2sc(C)nc2CC3)cn1` was 210 to 211 °C; that for `Cc1noc2cc3c(cc12)C1(CO3)C(=O)N(CC2CCCO2)c2ccccc21` (stereo not drawn) was 134 to 135 °C.
Next, `CC(C)C[C@H](NC(=O)OCc1ccccc1)C(=O)N[C@H]1CCOC1=O`: 130 to 131 °C.
Compound `Cc1ccc2nc(-c3cc(C(F)F)nn3-c3ccc(S(C)(=O)=O)cc3)sc2c1` yielded a melting point of 183 to 184 °C.
Next, `CC(C)(C)OC(=O)N1CCN(C(=O)c2ccc(-c3[nH]nc4c3C(=O)c3c(NC(=O)NN5CCOCC5)cccc3-4)s2)CC1`: 225 to 226 °C; `Cc1ccc(NC(=O)c2cccc(C(F)(F)F)c2)cc1-c1ccc2cnncc2c1`: 97 to 100 °C; `CCOC(=O)c1cn(CCCl)c2nc(N3CCN(C)CC3)ncc2c1=O`: 154 to 155 °C.
For the compound `CCOC(=O)c1cnc2c3c(ccc2c1)C(=O)CC=N3`, the melting point lay in the range of 250 to 252 °C.
Next, `CCOC(=O)c1oc2c([N+](=O)[O-])c(O)ccc2c1C`: 186 to 188 °C.

A word on the melting point: it is the temperature, or range, at which the solid turns liquid.
